Experiments:
[1] = Ciclopirox olamine solubility in Pluronic F127NF / cyclodextrin systems; format: physicochemical; conditions: systems with Pluronic F127NF, HPB or MBCD; 25° C.
Experimental: Dispersions of Pluronic F127NF (0, 10 and 15%) were prepared incorporating hydroxypropyl-β-cyclodextrin or partially methylated β-cyclodextrin at concentrations of 0, 0.5% and 10%. Ciclopirox olamine was added in amounts that far exceeded its aqueous solubility and was stirred at 25° C. for a week. The amount of dissolved ciclopirox was determined spectrophotometrically after filtering the dispersions. Pluronic F127NF dispersions containing 10% of hydroxypropyl-β-cyclodextrin or partially methylated β-cyclodextrin (5% or 10%) and N-acetylcysteine (5-10%) or urea (10-20%) has been studied.

[2] = Penetration of ciclopirox olamine through calf hoof, Franz-Chien cells; format: in vitro ADME; conditions: solutions in the absence of N-acetylcysteine
Experimental: Thermosensitive systems used in penetration studies were prepared as it follows:
1.—Dispersion of the Pluronic F127NF to 20% in cold water with magnetic stirring until complete dissolution.
2.- Ciclopirox olamine was incorporated in adequate quantities for concentrations close to saturation (see FIG. 3). […]
In the formulations prepared with partially methylated β-cyclodextrin, it was incorporated into the system at a concentration of 10% prior to the dissolution of triamcinolone acetonide, allowing soluble increasing doses of the drug (see FIG. 3).
Penetration studies were performed with cylindrical thin slices of calf hoof membrane (0.8-1 mm). The bovine hoof samples were placed using two Teflon adapters between the donor and acceptor compartment of vertical Franz-Chien penetration cells. In the receptor compartment, phosphate buffer (pH 7.4) was added and maintained at 37° C. 1 g of the thermosensitive systems was placed into the […]. […] The medium extracted was replaced with the same amount of buffer. The results were normalized by the diffusion surface and the thickness of the calf hoof slides used.

[3] = Triamcinolone acetonide solubility in Pluronic F127NF / cyclodextrin systems; format: physicochemical; conditions: systems with Pluronic F127NF, HPB or MBCD; 25° C.
Experimental: Aqueous dispersions of Pluronic F127NF containing a 0.10 and 15%, were prepared by stirring the polymer in water at 4° C. to study the incorporation of the drug. Hydroxypropyl-β-cyclodextrin or partially methylated β-cyclodextrin at concentrations of 0, 0.5% and 10% were also incorporated. Triamcinolone acetonide was added in amounts that far exceeded its aqueous solubility and was stirred at 25° C. for a week. The amount of dissolved triamcinolone was determined spectrophotometrically after filtering the dispersions through a membrane filter of 0.45 micron pore size.

[4] = Penetration of triamcinolone acetonide through calf hoof, Franz-Chien cells; format: in vitro ADME; conditions: solutions in the absence of N-acetylcysteine
Excerpt: For the preparation of thermosensitive systems used in penetration studies through the nail we proceeded as it follows:
1.—Dispersion of the Pluronic F127NF at 10 or 20% (depending on the formulation) in cold water with magnetic stirring until complete dissolution.
2.—Incorporation of triamcinolone acetonide in quantities for concentrations close to saturation (see FIG. 1). […]
In the formulations containing partially methylated β-cyclodextrin, it was incorporated into the system at concentrations of 10% prior to the dissolution of triamcinolone acetonide in order to increase aqueous concentration of the drug (see FIG. 1).
To perform the penetration studies, cylindrical thin slices of calf hoof membrane (0.8-1 mm) were used. The bovine hoof samples were placed using two Teflon adapters between the donor and acceptor compartment of vertical Franz-Chien penetration cells. In the receptor compartment, phosphate buffer (pH 7.4) was added and maintained at 37° C. 1 g of the thermosensitive systems was placed into the […]. Samples from receptor solution were collected at scheduled time, determining the concentration of triamcinolone acetonide by HPLC. The results were normalized by the diffusion surface and the thickness of the calf hoof slides used.

Row | Effect of N-acetylcysteine or urea on ciclopirox olamine solubility [1] | SMILES | Diffusion and penetration of ciclopirox olamine through calf hoof [2] | Effect of N-acetylcysteine on triamcinolone acetonide solubility [3] | Penetration of triamcinolone acetonide through calf hoof [4]
1 | significantly influences the solubility | Cc1cc(C2CCCCC2)n(O)c(=O)c1 [Ciclopirox olamine] | did not detect drug diffusion and penetration | – | –
2 | – | CC1(C)O[C@@H]2C[C@H]3[C@@H]4CCC5=CC(=O)C=C[C@]5(C)[C@@]4(F)[C@@H](O)C[C@]3(C)[C@]2(C(=O)CO)O1 [Triamcinolone acetonide] | – | did not alter the solubility | did not detect the penetration
